Laboratory results: patent US10994013B2, “Solid dosage form containing arabinogalactan” (TEMPLE UNIVERSITY—OF THE COMMONWEALTH SYSTEM OF HIGHER …, priority 2013, dated 2021)
≈ marks a conversion by molar mass, not a printed value. Where two headings read alike, the source gives them in different places.

Key:
[1] = Equilibrium solubility of drug in polymer solution in 0.1N HCl; assay type: physicochemical; details: for solubility thermodynamic at 72 h: 0.1 N HCl without polymer, simulated gastric fluid, thermodynamic from solid, 0.1 N HCl, 37 C, no polymer, read-out: saturation / equilibrium solubility of neat drug; for fold increase in drug solubility in the presence of AGF polymer: AGF dissolved in 0.1N HCl, 0% to 3%, ITRA and KETO at 3%
Protocol: Anal. Chem. Instrum. […] An excess of IBU (200 mg) was added to 10 ml of polymer solution in 0.1N HCl in a stoppered glass vial and was bath sonicated for 30 minutes. The polymer concentrations ranged from 0% to 3% (0 mg/ml to 30 mg/ml). The vials were kept in a shaking water bath at 37 C and at 50 rpm for 72 hours to obtain equilibrium. After 72 hours the shaker was turned off and the samples were kept at a standstill at 37 C for 3 hours to settle the undissolved drug at the bottom of the glass vials. The supernatant was filtered using a 0.45 micron filter.
For an equilibrium study of itraconazole, 50 mg itraconazole (ITRA) was added to 20 ml of AGF polymer solution in 0.1 N HCl.

[2] = Physical stability: XRPD RDC at accelerated storage conditions; assay type: physicochemical; details: IBU as reference, 2θ of 22.4°
Protocol: The RDC was measured by XRPD as described above for the dosage forms listed in Table 22 at various accelerated storage conditions. Batches of IBU AGF SDM, IBU HPMCK3 SDM, IBU HPMCK3 MSD and IBU AGF MSD at 10% drug load and 20% drug load were prepared as described above. In addition, 10% IBU AGF MSD and 10% IBU AGF SDM batches were prepared with 0.02% butylated hydroxytoluene (BHT), an antioxidant. […] 60% relative humidity and 40° C. […] These findings were confirmed by DSC (not shown).

[3] = In vitro drug dissolution, USP basket method, 0.1 N HCl; assay type: physicochemical; details: for % drug release at 15 minutes / % drug release at 30 minutes / % drug release at 120 minutes: 0.1N HCl, AGF formulations
Protocol: (§1) The in vitro drug dissolution rates of the dosage forms listed in Table 4 below were determined by the USP basked method (270 mesh, 53 micron pore size). The Van Kel VK7010 dissolution system was employed. 900 ml of 0.1 N HCl at 37° C. was used as a dissolution medium. The media was selected to mimic gastric pH and to allow greater discrimination of ibuprofen dissolution profiles due to formulation and processing effects. The dissolution experiment was run at 100 rpm. Each sample contained a dosage form equivalent to 25 mg of ibuprofen to maintain the non sink conditions, i.e. to employ a volume of medium (900 ml in this case) that is less than the volume of medium required for sink conditions, which is three times that required in order to form a saturated solution of drug. In vitro dissolution of 25 mg of neat ibuprofen was used as a control. At appropriate time intervals, samples were collected and replaced by fresh media. Each sample was filtered and the drug was analyzed using Agilent/HP 8453 UV-Vis spectrophotometer (λmx=222 nm). The experiment was conducted in triplicate. T50 (time for 50% drug release), T60 (time for 60% drug release), and T80 (time for 80% drug release) was recorded directly from the dissolution profiles.
as §1, with “PMs and MSDs made with ibuprofen and AGF or HPMCK3” for “the dosage forms listed in Table 4 below”, “contained an MSD or” for “contained”, “PM” for “dosage form”
In vitro basket dissolution was carried out on SDM and PM formulations as described in Example 3. Each sample of ITRA AGF SDM contained an amount equivalent to 25 mg of ITRA to maintain the non sink conditions. ITRA was analyzed using an Agilent/HP 8453 UV-Vis spectrophotometer (λmax=257 nm).
UV analysis was conducted at λmax=260 nm.
The degree of similarity between the dissolution profiles was calculated using the following equation from Moore and Flanner, 1996, Pharm. Tech. 20:64-74, and using data points up to 85% drug release (Shah et al., 1998, Pharm. Res. 15:889-896):
Two dissolution profiles would be deemed similar if the average difference between the reference and the test assay at the same time point were less than 10%. The similarity factor value would then not be less than 50%.

[4] = cited from earlier work
[5] = Relative degree of crystallinity (RDC) by XRPD; assay type: physicochemical; details: at 10% DL SD with AGF
Protocol: The term “relative degree of crystallinity (RDC),” as used herein is the degree of crystallinity of the therapeutic agent in the dosage form relative to the degree of crystallinity of the neat therapeutic agent. RDC is calculated using the following formula: RDC=I sample/I therapeutic agent I sample: peak height of the formulation under investigation at a chosen angle (2θ) I therapeutic agent: peak height of the neat therapeutic agent at the same angle that was chosen for the sample (2θ)
Powder X-ray diffraction of the ibuprofen-arabinogalactan MSDs was carried out to determine the crystallinity of the ibuprofen. Powder samples ([…]) were placed on a sample holder and the diffractograms were collected using a Bruker D8 diffractometer (Madison, Wis.) with Cu Kα radiation. The voltage of 40 kV was used and the current was 40 mA. The samples were scanned from 2 θ to 40 θ at a rate of 2 θ/minute. The data analysis was done using Bruker-AXs EVA software (version 15.0).
XRPD were collected using Rigaku D-Max B X-ray Diffractometer (Tokyo, Japan). The powder sample size of 0.5 gram was used and samples were run at 35 kV at 15 mA and […]. JADE software (version 9) was used to process, acquire and analyze the data.

SMILES: CC(C)Cc1ccc(C(C)C(=O)O)cc1 (stereo not shown) [IBU, Ibuprofen]
- solubility thermodynamic at 72 h [1]: 37 µg/mL (≈ 179 µM)
- fold increase in drug solubility in the presence of AGF polymer [1]: 7.3 fold
- IBU solubility with increasing HPMCK3 concentration ([1]; control polymer HPMCK3 in 0.1N HCl): did not enhance the solubility
- XRPD RDC, 25° C. and 0% relative humidity (6 Months) [2]: 1
- XRPD RDC, 25° C. and 60% relative humidity (6 Months) [2]: 1
- XRPD RDC, 40° C. and 0% relative humidity (3 Months) [2]: 1
- XRPD RDC, 40° C. and 75% relative humidity (3 Months) [2]: 1
- XRPD RDC, INITIAL [2]: 1
- % drug release at 15 minutes [3]: 8%
- % drug release at 30 minutes [3]: 27%
- % drug release at 120 minutes [3]: 41%
- T60 (time for 60% drug release) ([3]; 900 ml 0.1 N HCl, 37° C., 100 rpm, 25 mg ibuprofen, non sink): 300 min

SMILES: CCC(C)n1ncn(-c2ccc(N3CCN(c4ccc(OCC5COC(Cn6cncn6)(c6ccc(Cl)cc6Cl)O5)cc4)CC3)cc2)c1=O (stereo not shown) [ITRA, Itraconazole]
- solubility thermodynamic at 72 h [1]: 5720 µg/mL (≈ 8110 µM)
- fold increase in drug solubility in the presence of AGF polymer [1]: 16 fold

SMILES: COCCOC(=O)C1=C(C)NC(C)=C(C(=O)OC(C)C)C1c1cccc([N+](=O)[O-])c1 (stereo not shown) [NIMO, nimodipine]
- Solubility [4]: 2299 µg/mL (≈ 5490 µM)

SMILES: Clc1ccc(C(Cn2ccnc2)OCc2ccsc2Cl)c(Cl)c1 (stereo not shown) [TIOCO, tioconazole]
- Solubility [4]: ~2 µg/mL (≈ 5.16 µM)

SMILES: CC(C(=O)O)c1cccc(C(=O)c2ccccc2)c1 (stereo not shown) [KETO, Ketoprofen]
- % drug release at 15 minutes [3]: 1.8%
- % drug release at 30 minutes [3]: 3.3%
- % drug release at 120 minutes [3]: 8.4%

SMILES: CC(=O)N1CCN(c2ccc(OC[C@H]3CO[C@](Cn4ccnc4)(c4ccc(Cl)cc4Cl)O3)cc2)CC1 (racemic) [KETOC, ketoconazole]
- Solubility [4]: 10 µg/mL (≈ 18.8 µM)

SMILES: CC(C)NCC(O)COc1cccc2ccccc12 (stereo not shown) [PROPFB, propranolol free base]
- Solubility [4]: 120 µg/mL (≈ 463 µM)

SMILES: CC(C(=O)O)c1cccc(Oc2ccccc2)c1 (stereo not shown) [Fenoprofen, fenoprofen]
- RDC value [5]: 0.125
- Solubility ([4]; for its calcium salt): <<<<<<2500 μg/ml

SMILES: C[C@@H](C(=O)O)c1ccc(-c2ccccc2)c(F)c1 [FLURBI, flurbiprofen]
- Solubility [4]: 482 µg/mL (≈ 1970 µM)

SMILES: CCCNC(=O)NS(=O)(=O)c1ccc(Cl)cc1 [CHLOPR, chlorpropamide]
- Solubility ([4]; water at pH 6): 2500 µg/mL (≈ 9030 µM)
